Measurements as given in patent US10294202B2, “Pyrrolidinones as herbicides” (FMC Corporation, priority 2013, dated 2019).

What was measured:
barnyardgrass [1] = assay: Test A pre-/postemergence herbicide test; format: in vivo, Echinochloa crus-galli
Procedure, shortened: (§1)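 Visual injury ratings, 0 = no effect, 100 = complete control, taken ~10 days after treatment against untreated greenhouse controls. Preemergence: directed soil spray onto seeded loam/sand pots. Postemergence: spray onto plants at one- to two-leaf stage, 2–10 cm tall.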

pigweed = assay: Test A pre-/postemergence herbicide test; format: in vivo, Amaranthus retroflexus
Procedure, shortened: as §1

rice = assay: Test B flooded paddy test; format: in vivo, Oryza sativa; settings: 500 g ai/ha, Flood; scale of 0 to 100 where 0 is no effect and 100 is complete control
Procedure, shortened: (§2)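 Scoring: visual, compared with untreated controls, 0 = no effect through 100 = complete control, taken 13 to 15 days after treatment in the greenhouse. Compounds had been added to paddy water over soil flooded 3 cm deep at the plants' 2-leaf stage.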

ducksalad = assay: Test B flooded paddy test; format: in vivo, Heteranthera limosa; settings: 500 g ai/ha, Flood; scale of 0 to 100 where 0 is no effect and 100 is complete control
Procedure, shortened: as §2

barnyardgrass [2] = assay: Test B flooded paddy test; format: in vivo, Echinochloa crus-galli; settings: 500 g ai/ha, Flood; scale of 0 to 100 where 0 is no effect and 100 is complete control
Procedure, shortened: as §2

ryegrass, Italian = assay: Test C pre-/postemergence herbicide test; format: in vivo, Lolium multiflorum
Procedure, shortened: (§3)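 Pre- and postemergence greenhouse screen. Preemergence treatment went onto freshly planted seeds in loam–sand soil; postemergence treatment went onto plants 2 to 18 cm tall at the 1- to 4-leaf stage in sphagnum peat/vermiculite medium. Scoring at 13 to 15 days used a 0–100 control scale.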

morningglory = assay: Test C pre-/postemergence herbicide test; format: in vivo, Ipomoea coccinea
Procedure, shortened: as §3

nutsedge, yellow = assay: Test C pre-/postemergence herbicide test; format: in vivo, Cyperus esculentus
Procedure, shortened: as §3

soybean = assay: Test C pre-/postemergence herbicide test; format: in vivo, Glycine max
Procedure, shortened: as §3

barnyardgrass [3] = assay: Test C pre-/postemergence herbicide test; format: in vivo, Echinochloa crus-galli
Procedure, shortened: as §3

waterhemp = assay: Test C pre-/postemergence herbicide test; format: in vivo, Amaranthus rudis
Procedure, shortened: as §3

oat, wild = assay: Test C pre-/postemergence herbicide test; format: in vivo, Avena fatua; settings: Postemergence
Procedure, shortened: as §3

[4] = Postemergence, 125 g ai/ha, visual rating on 0 to 100 scale (0 no effect, 100 complete control), approx. 10 days
[5] = Postemergence, 500 g ai/ha, 0 to 100 scale (0 no effect, 100 complete control)
[6] = Preemergence, 125 g ai/ha, 0 to 100 scale where 0 is no effect and 100 is complete control
[7] = Preemergence, 500 g ai/ha, visual rating on 0 to 100 scale (0 no effect, 100 complete control)
[8] = Postemergence, 31 g ai/ha, scale 0 to 100 (0 no effect, 100 complete control)
[9] = Postemergence, 62 g ai/ha, scale 0 (no effect) to 100 (complete control)
[10] = Postemergence, 125 g ai/ha, scale 0 to 100 (0 no effect, 100 complete control)
[11] = Postemergence, 250 g ai/ha, scale 0 to 100 (0 no effect, 100 complete control)
[12] = Preemergence, 31 g ai/ha, scale 0 to 100, 0 is no effect and 100 is complete control
[13] = Preemergence, 62 g ai/ha, scale 0 to 100 (0 no effect, 100 complete control)
[14] = Preemergence, 125 g ai/ha, scale 0 to 100 (0 no effect, 100 complete control)
[15] = 31 g ai/ha, scale 0 to 100 (0 no effect, 100 complete control)
[16] = 62 g ai/ha, scale 0 (no effect) to 100 (complete control)
[17] = 125 g ai/ha, scale 0 to 100 (0 no effect, 100 complete control)
[18] = 250 g ai/ha, scale 0 to 100 (0 no effect, 100 complete control)

## CN1CC(c2ccc(F)c(F)c2)C(C(=O)Nc2cccc(F)c2F)C1=O (stereo not drawn) [Compound 303]
Barnyardgrass [1]; [4]
  Plant response rating, Barnyardgrass: 80
Barnyardgrass [1]; [5]
  Plant response rating, Barnyardgrass: 90
Barnyardgrass [1]; [6]
  Plant response rating, Barnyardgrass: 90
Barnyardgrass [1]; [7]
  Barnyardgrass plant response rating: 90
pigweed; [4]
  Plant response rating, Pigweed: 40
pigweed; [5]
  Plant response rating, Pigweed: 60
pigweed; [6]
  Plant response rating, Pigweed: 20
pigweed; [7]
  Pigweed plant response rating: 50
rice
  Plant response rating, Rice: 30
ducksalad
  Plant response rating, Ducksalad: 100
Barnyardgrass [2]
  Plant response rating, Barnyardgrass: 80
ryegrass, Italian; [8]
  Plant response rating, Ryegrass, Italian: 0
ryegrass, Italian; [9]
  Plant response rating, Ryegrass, Italian: 0
ryegrass, Italian; [10]
  Plant response rating, Ryegrass, Italian: 0
ryegrass, Italian; [11]
  Plant response rating, Ryegrass, Italian: 5
ryegrass, Italian; [12]
  Ryegrass, Italian plant response rating: 30
ryegrass, Italian; [13]
  Ryegrass, Italian plant response rating: 35
ryegrass, Italian; [14]
  Plant response rating, Ryegrass, Italian: 70
ryegrass, Italian; Preemergence, 250 g ai/ha
  Plant response rating (scale of 0 to 100), Ryegrass, Italian: 75
morningglory; [8]
  Plant response rating, Morningglory: 10
morningglory; [9]
  Plant response rating, Morningglory: 60
morningglory; [10]
  Plant response rating, Morningglory: 0
morningglory; [11]
  Plant response rating, Morningglory: 0
morningglory; [12]
  Morningglory plant response rating: 0
morningglory; [13]
  Morningglory plant response rating: 0
morningglory; [14]
  Plant response rating, Morningglory: 15
morningglory; Preemergence, 250 g ai/ha
  Plant response rating (scale of 0 to 100), Morningglory: 45
nutsedge, yellow; [8]
  Plant response rating, Nutsedge, Yellow: 0
nutsedge, yellow; [9]
  Plant response rating, Nutsedge, Yellow: 0
nutsedge, yellow; [10]
  Plant response rating, Nutsedge, Yellow: 0
nutsedge, yellow; [11]
  Plant response rating, Nutsedge, Yellow: 0
nutsedge, yellow; [12]
  Nutsedge, Yellow plant response rating: 0
nutsedge, yellow; [13]
  Nutsedge, Yellow plant response rating: 0
nutsedge, yellow; [14]
  Plant response rating, Nutsedge, Yellow: 0
nutsedge, yellow; Preemergence, 250 g ai/ha
  Plant response rating (scale of 0 to 100), Nutsedge, Yellow: 25
soybean; [8]
  Plant response rating, Soybean: 0
soybean; [9]
  Plant response rating, Soybean: 0
soybean; [10]
  Plant response rating, Soybean: 0
soybean; [11]
  Plant response rating, Soybean: 0
soybean; [12]
  Soybean plant response rating: 0
soybean; [13]
  Soybean plant response rating: 0
soybean; [14]
  Plant response rating, Soybean: 0
soybean; Preemergence, 250 g ai/ha
  Plant response rating (scale of 0 to 100), Soybean: 20
Barnyardgrass [3]; [8]
  Plant response rating, Barnyardgrass: 10
Barnyardgrass [3]; [9]
  Plant response rating, Barnyardgrass: 60
Barnyardgrass [3]; [10]
  Plant response rating, Barnyardgrass: 70
Barnyardgrass [3]; [11]
  Plant response rating, Barnyardgrass: 70
Barnyardgrass [3]; [12]
  Barnyardgrass plant response rating: 90
Barnyardgrass [3]; [13]
  Barnyardgrass plant response rating: 95
Barnyardgrass [3]; [14]
  Plant response rating, Barnyardgrass: 95
Barnyardgrass [3]; Preemergence, 250 g ai/ha
  Plant response rating (scale of 0 to 100; 0 is no effect, 100 is complete control), Barnyardgrass: 98
waterhemp; [8]
  Plant response rating, Waterhemp: 0
waterhemp; [9]
  Plant response rating, Waterhemp: 35
waterhemp; [10]
  Plant response rating, Waterhemp: 0
waterhemp; [11]
  Plant response rating, Waterhemp: 25
waterhemp; [12]
  Waterhemp plant response rating: 40
waterhemp; [13]
  Waterhemp plant response rating: 65
waterhemp; [14]
  Plant response rating, Waterhemp: 65
waterhemp; Preemergence, 250 g ai/ha
  Plant response rating (scale of 0 to 100), Waterhemp: 75
oat, wild; [15]
  Plant response rating, Oat, Wild: 0
oat, wild; [16]
  Plant response rating, Oat, Wild: 0
oat, wild; [17]
  Plant response rating, Oat, Wild: 0
oat, wild; [18]
  Plant response rating, Oat, Wild: 0

## CN1CC(c2cccc(C(F)(F)F)c2)C(C(=O)Nc2cccc(F)c2F)C1=O (stereo not drawn) [Compound 305]
Barnyardgrass [1]; [4]
  Plant response rating, Barnyardgrass: 80
Barnyardgrass [1]; [5]
  Plant response rating, Barnyardgrass: 90
Barnyardgrass [1]; [6]
  Plant response rating, Barnyardgrass: 80
Barnyardgrass [1]; [7]
  Barnyardgrass plant response rating: 90
pigweed; [4]
  Plant response rating, Pigweed: 60
pigweed; [5]
  Plant response rating, Pigweed: 70
pigweed; [6]
  Plant response rating, Pigweed: 0
pigweed; [7]
  Pigweed plant response rating: 40
rice
  Plant response rating, Rice: 15
ducksalad
  Plant response rating, Ducksalad: 100
Barnyardgrass [2]
  Plant response rating, Barnyardgrass: 75
ryegrass, Italian; [8]
  Plant response rating, Ryegrass, Italian: 0
ryegrass, Italian; [9]
  Plant response rating, Ryegrass, Italian: 0
ryegrass, Italian; [10]
  Plant response rating, Ryegrass, Italian: 0
ryegrass, Italian; [11]
  Plant response rating, Ryegrass, Italian: 45
ryegrass, Italian; [12]
  Ryegrass, Italian plant response rating: 15
ryegrass, Italian; [13]
  Ryegrass, Italian plant response rating: 50
ryegrass, Italian; [14]
  Plant response rating, Ryegrass, Italian: 50
ryegrass, Italian; Preemergence, 250 g ai/ha
  Plant response rating (scale of 0 to 100), Ryegrass, Italian: 80
morningglory; [8]
  Plant response rating, Morningglory: 25
morningglory; [9]
  Plant response rating, Morningglory: 20
morningglory; [10]
  Plant response rating, Morningglory: 75
morningglory; [11]
  Plant response rating, Morningglory: 20
morningglory; [12]
  Morningglory plant response rating: 0
morningglory; [13]
  Morningglory plant response rating: 30
morningglory; [14]
  Plant response rating, Morningglory: 40
morningglory; Preemergence, 250 g ai/ha
  Plant response rating (scale of 0 to 100), Morningglory: 65
nutsedge, yellow; [8]
  Plant response rating, Nutsedge, Yellow: 0
nutsedge, yellow; [9]
  Plant response rating, Nutsedge, Yellow: 0
nutsedge, yellow; [10]
  Plant response rating, Nutsedge, Yellow: 0
nutsedge, yellow; [11]
  Plant response rating, Nutsedge, Yellow: 0
nutsedge, yellow; [12]
  Nutsedge, Yellow plant response rating: 0
nutsedge, yellow; [13]
  Nutsedge, Yellow plant response rating: 0
nutsedge, yellow; [14]
  Plant response rating, Nutsedge, Yellow: 0
nutsedge, yellow; Preemergence, 250 g ai/ha
  Plant response rating (scale of 0 to 100), Nutsedge, Yellow: 100
soybean; [8]
  Plant response rating, Soybean: 10
soybean; [9]
  Plant response rating, Soybean: 0
soybean; [10]
  Plant response rating, Soybean: 0
soybean; [11]
  Plant response rating, Soybean: 0
soybean; [12]
  Soybean plant response rating: 0
soybean; [13]
  Soybean plant response rating: 0
soybean; [14]
  Plant response rating, Soybean: 0
soybean; Preemergence, 250 g ai/ha
  Plant response rating (scale of 0 to 100), Soybean: 0
Barnyardgrass [3]; [8]
  Plant response rating, Barnyardgrass: 20
Barnyardgrass [3]; [9]
  Plant response rating, Barnyardgrass: 55
Barnyardgrass [3]; [10]
  Plant response rating, Barnyardgrass: 70
Barnyardgrass [3]; [11]
  Plant response rating, Barnyardgrass: 80
Barnyardgrass [3]; [12]
  Barnyardgrass plant response rating: 90
Barnyardgrass [3]; [13]
  Barnyardgrass plant response rating: 95
Barnyardgrass [3]; [14]
  Plant response rating, Barnyardgrass: 95
Barnyardgrass [3]; Preemergence, 250 g ai/ha
  Plant response rating (scale of 0 to 100; 0 is no effect, 100 is complete control), Barnyardgrass: 98
waterhemp; [8]
  Plant response rating, Waterhemp: 10
waterhemp; [9]
  Plant response rating, Waterhemp: 10
waterhemp; [10]
  Plant response rating, Waterhemp: 35
waterhemp; [11]
  Plant response rating, Waterhemp: 40
waterhemp; [12]
  Waterhemp plant response rating: 40
waterhemp; [13]
  Waterhemp plant response rating: 65
waterhemp; [14]
  Plant response rating, Waterhemp: 80
waterhemp; Preemergence, 250 g ai/ha
  Plant response rating (scale of 0 to 100), Waterhemp: 80
oat, wild; [15]
  Plant response rating, Oat, Wild: 0
oat, wild; [16]
  Plant response rating, Oat, Wild: 0
oat, wild; [17]
  Plant response rating, Oat, Wild: 0
oat, wild; [18]
  Plant response rating, Oat, Wild: 30
